Test results from PubChem BioAssay AID1745844 (Carcinogenic Potency Database (CPDB), 2022).
“And” between values parts separate entries of the source, which are not always exact repeats. Equal entries are not always repeated. The source made the active and inactive calls. No rule for the calls is given here.

Test system: rodent lifetime carcinogenesis bioassay, tumor incidence TD50
Assay: carcinogenic potency in animals, long-term in vivo studies, CPDB compilation (AID 1745844)
[1] = mouse, strain ICI, males, by gavage, site: liver, lesion: several types, types named in the paper, dosed 80 weeks, study length 98 weeks
[2] = mouse, strain ICI, males, by gavage, site: lung, lesion: several types, types named in the paper, dosed 80 weeks, study length 98 weeks

ClC(Cl)Cl
2200 mg/kg/day: TD50 (rat, strain Osborne-Mendel, males, in drinking water, site: all sites, lesion: neurofibroma, dosed 104 weeks, study length 104 weeks)
54.1 mg/kg/day: TD50 (mouse, strain B6C3F1, females, by gavage, site: any site (literature study), lesion: several types, types named in the paper, dosed 78 weeks, study length 92 weeks)
2070 mg/kg/day: TD50 (mouse, strain Crj:BDF1, females, inhaled, site: pituitary gland, lesion: adenoma, dosed 104 weeks, study length 104 weeks)
68.2 mg/kg/day: TD50 (rat, strain Osborne-Mendel, females, by gavage, site: any site (literature study), lesion: several types, types named in the paper, dosed 78 weeks, study length 110 weeks)
455 mg/kg/day: TD50 (rat, strain Osborne-Mendel, males, by gavage, site: liver, lesion: hepatocellular adenoma + hepatocellular carcinoma + neoplastic nodule, dosed 78 weeks, study length 110 weeks)
519 mg/kg/day and 606 mg/kg/day: TD50 (rat, strain Osborne-Mendel, males, in drinking water, site: kidney, lesion: several types, types named in the paper, dosed 104 weeks, study length 104 weeks)
71.1 mg/kg/day: TD50 (mouse, strain B6C3F1, males, by gavage, site: any site (literature study), lesion: several types, types named in the paper, dosed 78 weeks, study length 92 weeks)
1360 mg/kg/day: TD50 (rat, strain Osborne-Mendel, males, in drinking water, site: all sites, lesion: several types, types named in the paper, dosed 104 weeks, study length 104 weeks)
48 mg/kg/day: TD50 (mouse, strain B6C3F1, females, by gavage, site: liver, lesion: hepatocellular adenoma + hepatocellular carcinoma + neoplastic nodule, dosed 78 weeks, study length 92 weeks)
45.4 mg/kg/day: TD50 (mouse, strain ICI, males, by gavage, site: any site (literature study), lesion: several types, types named in the paper, dosed 80 weeks, study length 96 weeks)
1970 mg/kg/day: TD50 (rat, strain Osborne-Mendel, males, in drinking water, site: any site (literature study), lesion: several types, types named in the paper, dosed 104 weeks, study length 104 weeks)
1130 mg/kg/day: TD50 (rat, strain Osborne-Mendel, females, by gavage, site: liver, lesion: hepatocellular adenoma + hepatocellular carcinoma + neoplastic nodule, dosed 78 weeks, study length 110 weeks)
972 mg/kg/day: TD50 (rat, strain Osborne-Mendel, males, in drinking water, site: kidney, lesion: tubular-cell adenoma, dosed 104 weeks, study length 104 weeks)
56.2 mg/kg/day: TD50 (mouse, strain B6C3F1, males, by gavage, site: liver, lesion: hepatocellular adenoma + hepatocellular carcinoma + neoplastic nodule, dosed 78 weeks, study length 92 weeks)
10000 mg/kg/day: TD50 (rat, strain Wistar, females, in drinking water, site: liver, lesion: hepatocellular carcinoma, dosed 187 weeks, study length 187 weeks)
3530 mg/kg/day: TD50 (mouse, strain Crj:BDF1, males, inhaled, site: lung, lesion: alveolar/bronchiolar carcinoma, dosed 104 weeks, study length 104 weeks)
inactive: TD50 (dog, strain Beagle, females, in feed, site: any site (literature study), lesion: several types, types named in the paper, dosed 376 weeks, study length 397 weeks) 10 mg/kg/day | carcinogen call (dog, strain Beagle, females, in feed, site: liver, lesion: one or several types, types not named, dosed 376 weeks, study length 397 weeks) negative | TD50 (dog, strain Beagle, males, in feed, site: any site (literature study), lesion: several types, types named in the paper, dosed 376 weeks, study length 397 weeks) 13.3 mg/kg/day | carcinogen call (dog, strain Beagle, males, in feed, site: liver, lesion: one or several types, types not named, dosed 376 weeks, study length 397 weeks) negative | carcinogen call (mouse, strain B6C3F1, females, in drinking water, site: any site (literature study), lesion: several types, types named in the paper, dosed 104 weeks, study length 104 weeks) negative | carcinogen call (mouse, strain B6C3F1, females, in drinking water, site: liver, lesion: hepatocellular adenoma, dosed 104 weeks, study length 104 weeks) negative | TD50 (mouse, strain B6C3F1, females, in drinking water, site: liver, lesion: hepatocellular carcinoma, dosed 104 weeks, study length 104 weeks) 20200 mg/kg/day | carcinogen call (mouse, strain B6C3F1, females, in drinking water, site: liver, lesion: several types, types named in the paper, dosed 104 weeks, study length 104 weeks) negative | carcinogen call (mouse, strain C57BL, males, by gavage, site: any site (literature study), lesion: several types, types named in the paper, dosed 80 weeks, study length 104 weeks) negative | carcinogen call (mouse, strain C57BL, males, by gavage, site: liver, lesion: one or several types, types not named, dosed 80 weeks, study length 104 weeks) negative | TD50 (mouse, strain C57BL, males, by gavage, site: lung, lesion: several types, types named in the paper, dosed 80 weeks, study length 104 weeks) 728 mg/kg/day | carcinogen call (mouse, strain CBA, males, by gavage, site: any site (literature study), lesion: several types, types named in the paper, dosed 80 weeks, study length 104 weeks) negative | carcinogen call (mouse, strain CBA, males, by gavage, site: liver, lesion: several types, types named in the paper, dosed 80 weeks, study length 104 weeks) negative | carcinogen call (mouse, strain CBA, males, by gavage, site: lung, lesion: several types, types named in the paper, dosed 80 weeks, study length 104 weeks) negative | TD50 (mouse, strain CF-1, males, by gavage, site: any site (literature study), lesion: several types, types named in the paper, dosed 80 weeks, study length 93 weeks) 140 mg/kg/day | TD50 (mouse, strain CF-1, males, by gavage, site: liver, lesion: one or several types, types not named, dosed 80 weeks, study length 93 weeks) 1430 mg/kg/day | TD50 (mouse, strain CF-1, males, by gavage, site: lung, lesion: several types, types named in the paper, dosed 80 weeks, study length 93 weeks) 376 mg/kg/day | carcinogen call (mouse, strain CFLP, males, by gavage, site: liver, lesion: one or several types, types not named, dosed 80 weeks, study length 104 weeks) negative | TD50 (mouse, strain CFLP, males, by gavage, site: lung, lesion: one or several types, types not named, dosed 80 weeks, study length 104 weeks) 4350 mg/kg/day | carcinogen call (mouse, strain ICI, females, by gavage, site: any site (literature study), lesion: several types, types named in the paper, dosed 80 weeks, study length 96 weeks) negative | carcinogen call (mouse, strain ICI, females, by gavage, site: liver, lesion: one or several types, types not named, dosed 80 weeks, study length 96 weeks) negative | TD50 (mouse, strain ICI, females, by gavage, site: lung, lesion: one or several types, types not named, dosed 80 weeks, study length 96 weeks) 316 mg/kg/day | TD50 (mouse, strain ICI, males, by gavage, site: liver, lesion: one or several types, types not named, dosed 80 weeks, study length 96 weeks) 324 mg/kg/day | TD50 [1] 437 mg/kg/day | carcinogen call [1] negative | TD50 (mouse, strain ICI, males, by gavage, site: lung, lesion: one or several types, types not named, dosed 80 weeks, study length 96 weeks) 9830 mg/kg/day | TD50 [2] 336 mg/kg/day | carcinogen call [2] negative | TD50 (rat, strain F344/DuCrj, females, inhaled, site: kidney, lesion: renal-cell adenoma, dosed 104 weeks, study length 104 weeks) 1590 mg/kg/day | TD50 (rat, strain F344/DuCrj, females, inhaled, site: kidney, lesion: transitional-cell carcinoma, dosed 104 weeks, study length 104 weeks) 1590 mg/kg/day | TD50 (rat, strain F344/DuCrj, females, inhaled, site: liver, lesion: hepatocellular adenoma, dosed 104 weeks, study length 104 weeks) 2180 mg/kg/day | carcinogen call (rat, strain F344/DuCrj, males, inhaled, site: kidney, lesion: one or several types, types not named, dosed 104 weeks, study length 104 weeks) negative | carcinogen call (rat, strain F344/DuCrj, males, inhaled, site: liver, lesion: several types, types named in the paper, dosed 104 weeks, study length 104 weeks) negative | TD50 (rat, strain Osborne-Mendel, females, by gavage, site: thyroid gland, lesion: c-cell adenoma + c-cell carcinoma + follicular-cell adenoma + follicular-cell carcinoma, dosed 78 weeks, study length 110 weeks) 126 mg/kg/day | TD50 (rat, strain Sprague-Dawley, females, by gavage, site: any site (literature study), lesion: malignant tumor, dosed 80 weeks, study length 95 weeks) 276 mg/kg/day | TD50 (rat, strain Sprague-Dawley, females, by gavage, site: any site (literature study), lesion: several types, types named in the paper, dosed 80 weeks, study length 95 weeks) 78.3 mg/kg/day | TD50 (rat, strain Sprague-Dawley, females, by gavage, site: liver, lesion: cystadenoma, dosed 80 weeks, study length 95 weeks) 1200 mg/kg/day | carcinogen call (rat, strain Sprague-Dawley, males, by gavage, site: any site (literature study), lesion: malignant tumor, dosed 80 weeks, study length 95 weeks) negative | carcinogen call (rat, strain Sprague-Dawley, males, by gavage, site: any site (literature study), lesion: several types, types named in the paper, dosed 80 weeks, study length 95 weeks) negative | carcinogen call (rat, strain Sprague-Dawley, males, by gavage, site: liver, lesion: one or several types, types not named, dosed 80 weeks, study length 95 weeks) negative
active: TD50 (mouse, strain B6C3F1, females, by gavage, site: liver, lesion: hepatocellular carcinoma, dosed 78 weeks, study length 92 weeks) 48 mg/kg/day | TD50 (mouse, strain B6C3F1, males, by gavage, site: liver, lesion: hepatocellular carcinoma, dosed 78 weeks, study length 92 weeks) 56.2 mg/kg/day | TD50 (mouse, strain CFLP, males, by gavage, site: kidney, lesion: several types, types named in the paper, dosed 80 weeks, study length 104 weeks) 153 mg/kg/day | TD50 (mouse, strain Crj:BDF1, females, inhaled, site: liver, lesion: hepatocellular carcinoma, dosed 104 weeks, study length 104 weeks) 2670 mg/kg/day | TD50 (mouse, strain Crj:BDF1, females, inhaled, site: liver, lesion: several types, types named in the paper, dosed 104 weeks, study length 104 weeks) 909 mg/kg/day | TD50 (mouse, strain Crj:BDF1, males, inhaled, site: kidney, lesion: renal-cell adenoma, dosed 104 weeks, study length 104 weeks) 1250 mg/kg/day | TD50 (mouse, strain Crj:BDF1, males, inhaled, site: kidney, lesion: renal-cell carcinoma, dosed 104 weeks, study length 104 weeks) 287 mg/kg/day | TD50 (mouse, strain Crj:BDF1, males, inhaled, site: kidney, lesion: several types, types named in the paper, dosed 104 weeks, study length 104 weeks) 226 mg/kg/day | TD50 (mouse, strain ICI, males, by gavage, site: kidney, lesion: several types, types named in the paper, dosed 80 weeks, study length 96 weeks) 139 mg/kg/day | TD50 (mouse, strain ICI, males, by gavage, site: kidney, lesion: several types, types named in the paper, dosed 80 weeks, study length 98 weeks) 278 mg/kg/day and 95.5 mg/kg/day | TD50 (rat, strain Osborne-Mendel, males, by gavage, site: kidney, lesion: tubular-cell adenoma + tubular-cell adenocarcinoma, dosed 78 weeks, study length 110 weeks) 119 mg/kg/day | TD50 (rat, strain Wistar, females, in drinking water, site: liver, lesion: neoplastic nodule, dosed 187 weeks, study length 187 weeks) 883 mg/kg/day | TD50 (rat, strain Wistar, males, in drinking water, site: kidney, lesion: adenocarcinoma, dosed 172 weeks, study length 172 weeks) 5300 mg/kg/day | TD50 (rat, strain Wistar, males, in drinking water, site: kidney, lesion: adenoma, dosed 172 weeks, study length 172 weeks) 5300 mg/kg/day
194 mg/kg/day: TD50 (rat, strain Osborne-Mendel, males, by gavage, site: any site (literature study), lesion: several types, types named in the paper, dosed 78 weeks, study length 110 weeks)
402 mg/kg/day: TD50 (mouse, strain Crj:BDF1, males, inhaled, site: liver, lesion: several types, types named in the paper, dosed 104 weeks, study length 104 weeks)
5300 mg/kg/day: TD50 (rat, strain Wistar, males, in drinking water, site: liver, lesion: hepatocellular carcinoma, dosed 172 weeks, study length 172 weeks)
88.5 mg/kg/day: TD50 (mouse, strain ICI, males, by gavage, site: any site (literature study), lesion: several types, types named in the paper, dosed 80 weeks, study length 98 weeks)
